According to US20230172961A1 (priority 2020, published 2023):
“Also recorded” adds a separate entry of the source.

Experiments:
[1] = molecular target: SARS-CoV RdRp (nsp12, nsp7 and nsp8) (Severe acute respiratory syndrome coronavirus, UniProt P0C6X7); type: biochemical
[2] = molecular target: T1, SARS-CoV-2 RdRp (nsp12, nsp7 and nsp8) (Severe acute respiratory syndrome coronavirus 2, UniProt P0DTD1); type: biochemical
[3] = molecular target: Therminator II (Thermococcus sp., UniProt Q56366, A485L/D141A/E143A/Y409V); details: 10 µM nucleotide, DNA template and primer, MALDI-TOF MS
Chain of Therminator II (Q56366 whole entry D141A/E143A/Y409V/A485L): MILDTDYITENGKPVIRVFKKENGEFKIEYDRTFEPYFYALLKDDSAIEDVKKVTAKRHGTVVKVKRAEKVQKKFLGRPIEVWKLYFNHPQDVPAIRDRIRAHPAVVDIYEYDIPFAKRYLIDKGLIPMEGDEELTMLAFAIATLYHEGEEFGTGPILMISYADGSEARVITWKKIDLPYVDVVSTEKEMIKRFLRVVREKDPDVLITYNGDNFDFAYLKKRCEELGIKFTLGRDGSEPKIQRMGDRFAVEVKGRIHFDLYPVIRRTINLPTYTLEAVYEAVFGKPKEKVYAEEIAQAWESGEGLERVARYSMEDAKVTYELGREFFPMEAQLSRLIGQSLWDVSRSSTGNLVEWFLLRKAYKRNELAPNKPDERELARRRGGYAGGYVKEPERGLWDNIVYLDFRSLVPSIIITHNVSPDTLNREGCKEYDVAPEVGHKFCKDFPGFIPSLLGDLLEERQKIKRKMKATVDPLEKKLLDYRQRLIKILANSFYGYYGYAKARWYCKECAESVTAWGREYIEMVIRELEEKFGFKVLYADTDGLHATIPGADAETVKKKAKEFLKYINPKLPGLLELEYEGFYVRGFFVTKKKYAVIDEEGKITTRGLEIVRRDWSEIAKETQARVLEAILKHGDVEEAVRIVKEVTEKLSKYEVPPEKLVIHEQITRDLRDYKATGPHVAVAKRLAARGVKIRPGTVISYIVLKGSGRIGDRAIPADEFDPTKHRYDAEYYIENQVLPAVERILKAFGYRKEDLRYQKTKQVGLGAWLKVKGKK

[4] = molecular target: T1, SARS-CoV-2 RdRp (nsp12, nsp7 and nsp8); details: kinetic studies of Gordon et al 2020a, b; RDV-TP with MERS-CoV and SARS-CoV-2 RdRps; cited from earlier work
[5] = system: Therminator IX; details: 10 µM nucleotide, DNA template and primer, MALDI-TOF MS
[6] = system: Thermo Sequenase; test: DNA polymerase extension reaction, MALDI-TOF MS, high fidelity polymerase; details: 10 µM nucleotide, DNA template and primer
[7] = system: RdRp of SARS-CoV and/or SARS-CoV-2; type: biochemical
[8] = system: SARS-CoV-2; details: hamsters; cited from earlier work
[9] = system: SARS-CoV-2 infection of human brain organoids; details: cited from earlier work
[10] = molecular target: SARS-CoV-2 RdRp (Severe acute respiratory syndrome coronavirus 2, UniProt P0DTD1); details: biochemical assays; cited from earlier work
[11] = molecular target: SARS-CoV-2 exonuclease complex (nsp14/nsp10) (Severe acute respiratory syndrome coronavirus 2, UniProt P0DTD1); test: Inhibition of SARS-CoV-2 exonuclease, MALDI-TOF MS; type: biochemical; details: 30 nM nsp14/nsp10, 37° C., 15 min
[12] = system: SARS-CoV-2 in Calu-3 lung cells; details: screen of 1200 drugs; cited from earlier work
[13] = system: SARS-CoV-2 in Vero and pulmonary epithelial cell culture; details: in the presence or absence of Ritonavir; cited from earlier work

**Q.** With 2′-fluoro-2′-methyl-UTP [2′-F,Me-UTP] as the molecule, how does the “termination of the polymerase reaction” value [1] read?
**A.** permanent terminators

**Q.** What about the incorporation efficiency [2] of the same molecule?
**A.** efficient substrates of the RdRp

**Q.** And the “termination of the polymerase reaction” value [2]?
**A.** single nucleotide (2′-F,Me-UMP) primer extension product

**Q.** What about the “incorporation and block of further nucleotide incorporation” value (shortened to “incorporation and block”) [3] of the same molecule?
**A.** able to be incorporated and block further nucleotide incorporation

**Q.** And the “incorporation efficiency relative to the natural nucleotide” value [4]?
**A.** lower incorporation efficiency than the natural nucleotide

**Q.** What about the “incorporation and block” value [5] of the same molecule?
**A.** able to be incorporated and block further nucleotide incorporation

**Q.** What about the “incorporation and block” value [6] of the same molecule?
**A.** no incorporation

**Q.** For `Nc1nc(O)c2ncn(COC(CO)COP(=O)(O)OP(=O)(O)OP(=O)(O)O)c2n1` (stereo not shown) [Gan-TP, Ganciclovir 5′-triphosphate], which “termination of the polymerase reaction” value [1] is on record?
**A.** terminate the polymerase reaction

**Q.** What about the “termination of the polymerase reaction” value [2] of the same molecule?
**A.** complete termination; also recorded: better terminators than Ent-TP

**Q.** And the “termination of the polymerase reaction (summary of the 11 tested)” value [7]?
**A.** complete termination of the polymerase reaction

**Q.** With `N#C[C@@]1(c2ccc3c(N)ncnn23)O[C@H](COP(=O)(O)OP(=O)(O)OP(=O)(O)O)[C@@H](O)[C@H]1O` [RDV-TP] as the molecule, how does the “incorporation efficiency relative to the natural nucleotide” value [4] read?
**A.** higher incorporation efficiency than ATP

**Q.** Which “viral loads in the respiratory tract” value [8] does the source give for `CNC(=C[N+](=O)[O-])NCCSCc1ccc(CN(C)C)o1.O=C([O-])CC(O)(CC(=O)[O-])C(=O)[O-].[Bi+3]` [Ranitidine bismuth citrate] here?
**A.** decrease viral loads in the respiratory tract of hamsters

**Q.** For `CC(C)OC(=O)[C@H](C)N[P@](=O)(OC[C@H]1O[C@@H](n2ccc(=O)[nH]c2=O)[C@](C)(F)[C@@H]1O)Oc1ccccc1` [Sofosbuvir], which “protection from SARS-CoV-2 infection” value [9] is on record?
**A.** protect human brain organoids from SARS-CoV-2 infection

**Q.** For `Cc1ccc(C(=O)Nc2ccc(S(=O)(=O)O)c3cc(S(=O)(=O)O)cc(S(=O)(=O)O)c23)cc1NC(=O)c1cccc(NC(=O)Nc2cccc(C(=O)Nc3cc(C(=O)Nc4ccc(S(=O)(=O)O)c5cc(S(=O)(=O)O)cc(S(=O)(=O)O)c45)ccc3C)c2)c1` [Suramin], which “potency relative to Remdesivir” value [10] is on record?
**A.** 20 ×

**Q.** Which “inhibition of exonuclease activity” value ([11]; 50 µM inhibitor) does the source give for `COC[C@H]1C[C@@H](c2nc(-c3ccc4c(c3)COc3cc5c(ccc6nc([C@@H]7CC[C@H](C)N7C(=O)[C@@H](NC(=O)OC)C(C)C)[nH]c65)cc3-4)c[nH]2)N(C(=O)[C@H](NC(=O)OC)c2ccccc2)C1` [Velpatasvir] here?
**A.** shows inhibition of the exonuclease activity

**Q.** And the “inhibition of exonuclease activity” value ([11]; 150 µM inhibitor)?
**A.** increased inhibition of exonuclease activity

**Q.** What about the “synergism with Remdesivir in inhibiting viral production” value [12] of the same molecule?
**A.** strongest effects

**Q.** For `COC(=O)N[C@H](C(=O)N[C@@H](Cc1ccccc1)[C@@H](O)CN(Cc1ccc(-c2ccccn2)cc1)NC(=O)[C@@H](NC(=O)OC)C(C)(C)C)C(C)(C)C` [atazanavir], which “inhibition of viral production” value [13] is on record?
**A.** inhibits viral production

**Q.** With `Cc1cn([C@H]2C[C@H](O)[C@@H](COP(=O)(O)OP(=O)(O)OP(=O)(O)O)O2)c(=O)[nH]c1=O` [dTTP] as the molecule, how does the “incorporation and block” value [3] read?
**A.** incorporation continued past the first A in the template

**Q.** What about the “incorporation and block” value [5] of the same molecule?
**A.** incorporation continued past the first A in the template

**Q.** What about the “incorporation and block” value [6] of the same molecule?
**A.** incorporation continued past the first A in the template

**Q.** For Cidofovir diphosphate [Cid-DP], which “termination of the polymerase reaction” value [1] is on record?
**A.** terminate the polymerase reaction

**Q.** What about the “termination of the polymerase reaction” value [2] of the same molecule?
**A.** delayed termination

**Q.** And the “termination of the polymerase reaction at 10-fold lower concentration” value [2]?
**A.** resulted in termination of the polymerase reaction

**Q.** What about the “termination of the polymerase reaction (summary of the 11 tested)” value [7] of the same molecule?
**A.** incomplete or delayed termination
